Laboratory results reported in patent US12398154B2, “Azaquinazoline pan-KRas inhibitors” (Mirati Therapeutics, Inc., priority 2020, dated 2025).

Legend:
[1] = biological target: KRas G12R (Homo sapiens, UniProt P01116, G12R); experiment: biochemical;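 note: TR-FRET displacement assay of compound binding to KRas, read after one hour at room temperature, potency from a four-parameter fit of percent-of-control values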
Method: (§1) The ability of a compound to bind to KRas was measured using a TR-FRET displacement assay. […] After a 60-minute incubation at room temperature, the reaction was measured using a BMG LABTECH CLARIO star Plus via TR-FRET. […] The POC values were fit to a 4-parameter IC50 equation and the IC50 value reported.

[2] = tested on: pERK in H358 cells; experiment: Inhibition of KRas phosphorylation of ERK (Cisbio HTRF pERK assay); details: Homo sapiens, NCI-H358, read-out: Inhibition (HTRF IC50) of KRas-mediated Phosphorylation of ERK, H358
[3] = biological target: KRas G12D (Homo sapiens, UniProt P01116, G12D); experiment: biochemical;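 note: TR-FRET displacement binding assay on KRas, read after a one-hour incubation at room temperature, IC50 fitted from percent-of-control values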
Sequence of KRas G12D (P01116 1-169 isoform P01116-2 G12D): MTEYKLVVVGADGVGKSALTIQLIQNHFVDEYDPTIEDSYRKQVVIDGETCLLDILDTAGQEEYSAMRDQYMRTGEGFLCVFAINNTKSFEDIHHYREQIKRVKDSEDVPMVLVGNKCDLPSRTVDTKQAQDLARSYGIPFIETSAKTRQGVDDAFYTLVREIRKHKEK
Method: as §1

[4] = tested on: pERK in H460 cells; experiment: Inhibition of KRas phosphorylation of ERK (Cisbio HTRF pERK assay); details: Homo sapiens, NCI-H460, read-out: Inhibition (HTRF IC50) of KRas-mediated Phosphorylation of ERK, H460
[5] = tested on: pERK in H727 cells; experiment: as above; details: Homo sapiens, NCI-H727, read-out: Inhibition (HTRF IC50) of KRas-mediated Phosphorylation of ERK, H727
[6] = tested on: pERK in A549 cells; experiment: as above; details: Homo sapiens, A549, read-out: Inhibition (HTRF IC50) of KRas-mediated Phosphorylation of ERK, A549
[7] = tested on: pERK in HCT116 cells; experiment: as above; details: Homo sapiens, HCT-116, read-out: Inhibition (HTRF IC50) of KRas-mediated Phosphorylation of ERK, HCT116
[8] = tested on: pERK in MKN1 cells; experiment: as above; details: Homo sapiens, MKN-1, 3 h, read-out: Inhibition (HTRF IC50) of KRas-mediated Phosphorylation of ERK, MKN1
[9] = biological target: KRas G12V (Homo sapiens, UniProt P01116, G12V); experiment: biochemical;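 note: KRas binding measured by TR-FRET displacement at room temperature, IC50 fitted from percent of control values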
Sequence of KRas G12V (P01116 1-169 isoform P01116-2 G12V): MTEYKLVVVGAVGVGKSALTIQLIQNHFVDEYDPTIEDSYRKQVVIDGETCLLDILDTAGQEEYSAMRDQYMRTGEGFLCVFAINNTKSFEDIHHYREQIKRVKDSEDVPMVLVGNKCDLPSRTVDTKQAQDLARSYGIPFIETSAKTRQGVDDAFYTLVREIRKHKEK
Method: as §1

[10] = tested on: pERK in PSN1 cells; experiment: Inhibition of KRas phosphorylation of ERK (Cisbio HTRF pERK assay); details: Homo sapiens, PSN1, 3 h, read-out: Inhibition (HTRF IC50) of KRas-mediated Phosphorylation of ERK, PSN1
[11] = tested on: pERK in ASPC1 cells; experiment: as above; details: Homo sapiens, ASPC1, read-out: Inhibition (HTRF IC50) of KRas-mediated Phosphorylation of ERK, AsPC-1

Sequence of KRas G12R (P01116 1-169 isoform P01116-2 G12R): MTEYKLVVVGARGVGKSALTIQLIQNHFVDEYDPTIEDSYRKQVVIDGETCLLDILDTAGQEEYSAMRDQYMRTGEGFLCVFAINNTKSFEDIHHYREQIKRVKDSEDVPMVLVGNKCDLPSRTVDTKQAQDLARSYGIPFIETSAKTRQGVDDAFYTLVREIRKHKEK

Compound	IC50 [1] [nM]	IC50 [2] [nM]	IC50 [3] [nM]	IC50 [4] [nM]	IC50 [5] [nM]	IC50 [6] [nM]	IC50 [7] [nM]	IC50 [8] [nM]	IC50 [9] [nM]	IC50 [10] [nM]	IC50 [11] [nM]
CCc1c(F)ccc2cc(O)cc(-c3ncc4c(N5CCCn6nc(NC)cc6C5)nc(OC[C@@]56CCCN5C[C@H](F)C6)nc4c3F)c12 [Example 340, 5-ethyl-6-fluoro-4-(8-fluoro-2-(((2R,7aS)-2-fluorohexahydro-1H-pyrrolizin-7a-yl)methoxy)-4-(2-(methylamino)-7,8-dihydro-4II-pyrazolo[1,5-a][1,4]diazepin-5(6H)-yl)pyrido[4,3-d]pyrimidin-7-yl)naphthalen-2-ol]	≤ 2	55	≤ 2	373	149	353	999	26	≤ 2	≥ 10000	39
CCc1c(F)ccc2cc(O)cc(-c3ncc4c(N5CCCSCC5)nc(OC[C@@]56CCCN5C[C@H](F)C6)nc4c3F)c12 [Example 342, 5-ethyl-6-fluoro-4-(8-fluoro-2-(((2R,7aS)-2-fluorohexahydro-1H-pyrrolizin-7a-yl)methoxy)-4-(1,4-thiazepan-4-yl)pyrido[4,3-d]pyrimidin-7-yl)naphthalen-2-ol]	≤ 2	62	3	203	46	167	470	4	≤ 2	2240	23
CCc1c(F)ccc2cc(O)cc(-c3ncc4c(N5CCCOC(CO)C5)nc(OC[C@@]56CCCN5C[C@H](F)C6)nc4c3F)c12 (stereo partly drawn) [Example 343, 5-ethyl-6-fluoro-4-(8-fluoro-2-(((2R,7aS)-2-fluorotetrahydro-1H-pyrrolizin-7a(5H)-yl)methoxy)-4-(2-(hydroxymethyl)-1,4-oxazepan-4-yl)pyrido[4,3-d]pyrimidin-7-yl)naphthalen-2-ol]	≤ 2	7	≤ 2	128	24	91	128	4	≤ 2	5930	60
CCc1c(F)ccc2cc(O)cc(-c3ncc4c(N5CCCc6nn(C(=O)N(C)C)cc6C5)nc(OC[C@@]56CCCN5C[C@H](F)C6)nc4c3F)c12 [Example 353, 5-(7-(8-ethyl-7-fluoro-3-hydroxynaphthalen-1-yl)-8-fluoro-2-(((2R,7aS)-2-fluorohexahydro-1H-pyrrolizin-7a-yl)methoxy)pyrido[4,3-d]pyrimidin-4-yl)-N,N-dimethyl-5,6,7,8-tetrahydropyrazolo[4,3-c]azepine-2(4H)-carboxamide]	≤ 2	19	≤ 2	149	34	80	396	24	≤ 2	4810	7
CCc1c(F)ccc2cc(O)cc(-c3ncc4c(N5CCCn6nc(C(=O)N7CCOCC7)cc6C5)nc(OC[C@@]56CCCN5C[C@H](F)C6)nc4c3F)c12 [Example 354, (5-(7-(8-ethyl-7-fluoro-3-hydroxynaphthalen-1-yl)-8-fluoro-2-(((2R,7aS)-2-fluorohexahydro-1H-pyrrolizin-7a-yl)methoxy)pyrido[4,3-d]pyrimidin-4-yl)-5,6,7,8-tetrahydro-4H-pyrazolo[1,5-a][1,4]diazepin-2-yl)(morpholino)methanone]	≤ 2	17	≤ 2	304	48	65	623	14	≤ 2	≥ 10000	14
CCc1c(F)ccc2cc(O)cc(-c3ncc4c(N5CCCn6nc(C(=O)N7CCCC7)cc6C5)nc(OC[C@@]56CCCN5C[C@H](F)C6)nc4c3F)c12 [Example 355, (5-(7-(8-ethyl-7-fluoro-3-hydroxynaphthalen-1-yl)-8-fluoro-2-(((2R,7aS)-2-fluorohexahydro-1H-pyrrolizin-7a-yl)methoxy)pyrido[4,3-d]pyrimidin-4-yl)-5,6,7,8-tetrahydro-4H-pyrazolo[1,5-a][1,4]diazepin-2-yl)(pyrrolidin-1-yl)methanone]	≤ 2	16	≤ 2	270	30	140	471	17	≤ 2	6770	8
CCNC(=O)c1cc2n(n1)CCCN(c1nc(OC[C@@]34CCCN3C[C@H](F)C4)nc3c(F)c(-c4cc(O)cc5ccc(F)c(CC)c45)ncc13)C2 [Example 356, N-ethyl-5-(7-(8-ethyl-7-fluoro-3-hydroxynaphthalen-1-yl)-8-fluoro-2-(((2R,7aS)-2-fluorohexahydro-1H-pyrrolizin-7a-yl)methoxy)pyrido[4,3-d]pyrimidin-4-yl)-5,6,7,8-tetrahydro-4H-pyrazolo[1,5-a][1,4]diazepine-2-carboxamide]	≤ 2	20	≤ 2	458	63	232	767	40	≤ 2	9300	16

Now from value to compound:

IC50 [1] [nM]	IC50 [2] [nM]	IC50 [3] [nM]	IC50 [4] [nM]	IC50 [5] [nM]	IC50 [6] [nM]	IC50 [7] [nM]	IC50 [8] [nM]	IC50 [9] [nM]	IC50 [10] [nM]	IC50 [11] [nM]	Compound
≤ 2	27	≤ 2	805	63	576	1350	71	≤ 2	7480	13	CCc1c(F)ccc2cc(O)cc(-c3ncc4c(N5CCCn6nc(C(=O)NC(C)C)cc6C5)nc(OC[C@@]56CCCN5C[C@H](F)C6)nc4c3F)c12 [Example 357, 5-(7-(8-ethyl-7-fluoro-3-hydroxynaphthalen-1-yl)-8-fluoro-2-(((2R,7aS)-2-fluorohexahydro-1H-pyrrolizin-7a-yl)methoxy)pyrido[4,3-d]pyrimidin-4-yl)-N-isopropyl-5,6,7,8-tetrahydro-4H-pyrazolo[1,5-a][1,4]diazepine-2-carboxamide]
≤ 2	3	≤ 2	131	15	44	167	4	≤ 2	9770	12	CCc1c(F)ccc2cc(O)cc(-c3ncc4c(N5CCCn6nc(C(=O)N(C)CC)cc6C5)nc(OC[C@@]56CCCN5C[C@H](F)C6)nc4c3F)c12 [Example 358, N-ethyl-5-(7-(8-ethyl-7-fluoro-3-hydroxynaphthalen-1-yl)-8-fluoro-2-(((2R,7aS)-2-fluorotetrahydro-1H-pyrrolizin-7a(5H)-yl)methoxy)pyrido[4,3-d]pyrimidin-4-yl)-N-methyl-5,6,7,8-tetrahydro-4H-pyrazolo[1,5-a][1,4]diazepine-2-carboxamide]
≤ 2	17	≤ 2	85	49	122	231	3	≤ 2	6820	8	CCc1c(F)ccc2cc(O)cc(-c3ncc4c(N5CCOC[C@@](C)(O)C5)nc(OCC5(CN(C)C)CC5)nc4c3F)c12 [Example 361, (S)-4-(2-((1-((dimethylamino)methyl)cyclopropyl)methoxy)-7-(8-ethyl-7-fluoro-3-hydroxynaphthalen-1-yl)-8-fluoropyrido[4,3-d]pyrimidin-4-yl)-6-methyl-1,4-oxazepan-6-ol]
